Source: article PMC10745768, “Stereoselective Synthesis and Antiproliferative Activity of Steviol-Based Diterpene 1,3-Aminoalcohol Regioisomers” (Molecules, 2023)
Blank lines part the entries; values can stand above or below the compound they belong to.

Experiments:
HeLa cells = test: MTT antiproliferative assay, HeLa; type: cell-based; conditions: Homo sapiens, 72 h; for inhibition at 10 µM / inhibition at 30 µM: read-out: Growth inhibition (%) ± SEM
Experimental: (§1) The in vitro anticancer effects of the presented compounds were assessed using the standard MTT [3-(4,5-dimethylthiazol2-yl)-2,5-diphenyltetrazolium bromide] assay on the following human cancer cell lines: cervical (HeLa and SiHa), breast (MCF-7 and MDA-MB-231) and ovarian cancer (A2780). The selectivity of the tested compounds was determined on murine embryonal fibroblast cells (NIH/3T3). The utilised cell lines were purchased from the European Collection of Cell Cultures (Salisbury, UK). The cells were cultivated in Eagle’s minimal essential medium supplemented with 10% fetal bovine serum, 1% non-essential amino acids and 1% antibiotic-antimycotic complex (penicillin, streptomycin, amphotericin B) at 37 °C in a humidified atmosphere containing 5% CO2. All media and supplements were purchased from Lonza Group Ltd. (Basel, Switzerland). The cancer cells were seeded into 96-well plates (5000 cells/well) and incubated overnight, and the test compounds were applied in two different concentrations (10 µM and 30 µM) and incubated for another 72 h under cell-culturing conditions. […] After 72 h, 20 µL of the 5 mg/mL MTT solution was added to each well, and the plates were incubated for 4 h. The medium was removed, and the formazan crystals produced by the mitochondrial activity were dissolved in dimethyl sulfoxide (DMSO) via shaking at 37 °C for 30 min. The absorbances were measured at 545 nm using a microplate reader (SPECTROStar Nano, BMG Labtech, Offenburg, Germany). The reference agent was cisplatin, which is a widely used cytotoxic agent. The IC50 values were calculated using sigmoid curve fitting. Two independent experiments were performed with five parallel wells for each condition. Calculations were performed using the GraphPad Prism 9 software (GraphPad Software Inc., San Diego, CA, USA).

SiHa cells = test: MTT antiproliferative assay, SiHa; type: cell-based; conditions: Homo sapiens, 72 h; for inhibition at 10 µM / inhibition at 30 µM: read-out: Growth inhibition (%) ± SEM
Experimental: as §1

MCF-7 cells = test: MTT antiproliferative assay, MCF-7; type: cell-based; conditions: Homo sapiens, MCF7; for inhibition at 10 µM: MCF-7, 10 μM; for inhibition at 10 µM / inhibition at 30 µM: 72 h, read-out: Growth inhibition (%) ± SEM; for inhibition at 30 µM: MCF-7, 30 μM
Experimental: as §1

MDA-MB-231 cells = test: MTT antiproliferative assay, MDA-MB-231; type: cell-based; conditions: Homo sapiens; for inhibition at 10 µM: MDA-MB-231, 10 μM; for inhibition at 10 µM / inhibition at 30 µM: 72 h, read-out: Growth inhibition (%) ± SEM; for inhibition at 30 µM: MDA-MB-231, 30 μM
Experimental: as §1

A2780 cells = test: MTT antiproliferative assay, A2780; type: cell-based; conditions: Homo sapiens; for inhibition at 10 µM: A2780, 10 μM; for inhibition at 10 µM / inhibition at 30 µM: 72 h, read-out: Growth inhibition (%) ± SEM; for inhibition at 30 µM: A2780, 30 μM
Experimental: as §1

NIH/3T3 fibroblast cells = test: MTT assay on non-malignant fibroblasts (selectivity); type: cell-based, murine; conditions: Mus musculus, NIH3T3; for inhibition at 10 µM: NIH/3T3, 10 μM; for inhibition at 10 µM / inhibition at 30 µM: 72 h, read-out: Growth inhibition (%) ± SEM; for inhibition at 30 µM: NIH/3T3, 30 μM
Experimental: as §1

[1] = system: human cancer cell lines (HeLa, SiHa, MCF-7, MDA-MB-231, A2780); test: MTT antiproliferative assay, panel of malignant cells; type: cell-based; conditions: for antiproliferative action at higher concentration (in words): 30 μM
Experimental: as §1

SMILES: COC(=O)[C@]1(C)CCC[C@@]2(C)[C@@H]3CC[C@@]4(CO)C[C@]3(CC[C@@H]21)C[C@H]4N[C@@H](C)c1ccc2ccccc2c1 [Compound 16, (4R,4aS,6aR,8R,9R,11aR,11bS)-Methyl 9-(hydroxymethyl)-4,11b-dimethyl-8-(((S)-1-(naphthalen-2-yl)ethyl)amino)tetradecahydro-6a,9-methanocyclohepta[a]naphthalene-4-carboxylate]
inhibition at 10 µM (HeLa cells): 55.4 ± 2.81%
inhibition at 30 µM (HeLa cells): 95.7 ± 1.12%
IC50 (HeLa cells; read-out: calculated IC50): 3.4 µM
inhibition at 10 µM (SiHa cells): 80 ± 1.41%
inhibition at 30 µM (SiHa cells): 89.4 ± 1.03%
IC50 (SiHa cells; read-out: calculated IC50): 6.33 µM
inhibition at 10 µM (MCF-7 cells): 81 ± 2.03%
inhibition at 30 µM (MCF-7 cells): 97.95 ± 0.56%
IC50 (MCF-7 cells; MCF-7, 72 h, read-out: calculated IC50): 3.88 µM
IC50 (MDA-MB-231 cells; MDA-MB-231, 72 h, read-out: calculated IC50): 4.51 µM
inhibition at 10 µM (MDA-MB-231 cells): 84.4 ± 2.92%
inhibition at 30 µM (MDA-MB-231 cells): 93.6 ± 1.23%
IC50 (A2780 cells; A2780, 72 h, read-out: calculated IC50): 4.43 µM
inhibition at 10 µM (A2780 cells): 97.6 ± 2.81%
inhibition at 30 µM (A2780 cells): 100.3 ± 0.57%
inhibition at 10 µM (NIH/3T3 fibroblast cells): < 20%
inhibition at 30 µM (NIH/3T3 fibroblast cells): 96.83 ± 0.66%
IC50 (NIH/3T3 fibroblast cells; NIH/3T3, 72 h, read-out: calculated IC50): 17.4 µM
IC50 ([1]; Homo sapiens, range over the five cancer cell lines): 3.44 to 6.33 µM
melting point: 105 to 108 °C

SMILES: COC(=O)[C@]1(C)CCC[C@@]2(C)[C@@H]3CC[C@@]4(CO)C[C@]3(CC[C@@H]21)C[C@H]4N [Compound 6, (4R,4aS,6aR,8R,9R,11aR,11bS)-Methyl 8-amino-9-(hydroxymethyl)-4,11b-dimethyltetradecahydro-6a,9-methanocyclohepta[a]naphthalene-4-carboxylate]
inhibition at 10 µM (HeLa cells): 23.2 ± 1.97%
inhibition at 30 µM (HeLa cells): 93.94 ± 0.55%
inhibition at 10 µM (SiHa cells): < 20%
inhibition at 30 µM (SiHa cells): 68.24 ± 0.61%
inhibition at 10 µM (MCF-7 cells): 36.4 ± 3.48%
inhibition at 30 µM (MCF-7 cells): 98.58 ± 0.22%
inhibition at 10 µM (MDA-MB-231 cells): 25.8 ± 2.49%
inhibition at 30 µM (MDA-MB-231 cells): 97.6 ± 0.67%
inhibition at 10 µM (A2780 cells): 24.8 ± 5.19%
inhibition at 30 µM (A2780 cells): 82.5 ± 4.66%
inhibition at 10 µM (NIH/3T3 fibroblast cells): 22.1 ± 1.54%
inhibition at 30 µM (NIH/3T3 fibroblast cells): 98.27 ± 0.37%
antiproliferative action at higher concentration (in words) [1]: pronounced cell growth inhibition
melting point: 166 to 170 °C

SMILES: COC(=O)[C@]1(C)CCC[C@@]2(C)[C@@H]3CC[C@@]4(CN=[N+]=[N-])C[C@]3(CC[C@@H]21)C[C@H]4O [Compound 20, (4R,4aS,6aR,8R,9S,11aR,11bS)-Methyl 9-(azidomethyl)-8-hydroxy-4,11b-dimethyltetradecahydro-6a,9-methanocyclohepta[a]naphthalene-4-carboxylate]
inhibition at 10 µM (HeLa cells): < 20%
inhibition at 30 µM (HeLa cells): < 20%
inhibition at 10 µM (SiHa cells): < 20%
inhibition at 30 µM (SiHa cells): < 20%
inhibition at 10 µM (MCF-7 cells): < 20%
inhibition at 30 µM (MCF-7 cells): 30.7 ± 0.93%
inhibition at 10 µM (MDA-MB-231 cells): < 20%
inhibition at 30 µM (MDA-MB-231 cells): < 20%
inhibition at 10 µM (A2780 cells): < 20%
inhibition at 30 µM (A2780 cells): 27 ± 2.25%
inhibition at 10 µM (NIH/3T3 fibroblast cells): < 20%
inhibition at 30 µM (NIH/3T3 fibroblast cells): < 20%
antiproliferative action at higher concentration (in words) [1]: no substantial action
melting point: 72 to 74 °C

SMILES: COC(=O)[C@]1(C)CCC[C@@]2(C)[C@@H]3CC[C@@]4(CO)C[C@]3(CC[C@@H]21)C[C@@H]4N [Compound 7, (4R,4aS,6aR,8S,9R,11aR,11bS)-Methyl 8-amino-9-(hydroxymethyl)-4,11b-dimethyltetradecahydro-6a,9-methanocyclohepta[a]naphthalene-4-carboxylate]
inhibition at 10 µM (HeLa cells): 24.9 ± 2.49%
inhibition at 30 µM (HeLa cells): 96.89 ± 0.54%
inhibition at 10 µM (SiHa cells): < 20%
inhibition at 30 µM (SiHa cells): 88.6 ± 2.01%
inhibition at 10 µM (MCF-7 cells): 43.1 ± 3.79%
inhibition at 30 µM (MCF-7 cells): 99.33 ± 0.24%
inhibition at 10 µM (MDA-MB-231 cells): 28 ± 1.84%
inhibition at 30 µM (MDA-MB-231 cells): 97.67 ± 0.67%
inhibition at 10 µM (A2780 cells): 27 ± 4.31%
inhibition at 30 µM (A2780 cells): 91.6 ± 1.97%
inhibition at 10 µM (NIH/3T3 fibroblast cells): < 20%
inhibition at 30 µM (NIH/3T3 fibroblast cells): 97.76 ± 0.7%
antiproliferative action at higher concentration (in words) [1]: pronounced cell growth inhibition
melting point: 127 to 130 °C

SMILES: COC(=O)[C@]1(C)CCC[C@@]2(C)[C@@H]3CC[C@@]4(CN=[N+]=[N-])C[C@]3(CC[C@@H]21)CC4=O [Compound 19, (4R,4aS,6aR,9S,11aR,11bS)-Methyl 9-(azidomethyl)-4,11b-dimethyl-8-oxotetradecahydro-6a,9-methanocyclohepta[a]naphthalene-4-carboxylate]
inhibition at 10 µM (HeLa cells): 31.6 ± 1.34%
inhibition at 30 µM (HeLa cells): 46.86 ± 0.27%
inhibition at 10 µM (SiHa cells): < 20%
inhibition at 30 µM (SiHa cells): < 20%
inhibition at 10 µM (MCF-7 cells): < 20%
inhibition at 30 µM (MCF-7 cells): 38 ± 1.36%
inhibition at 10 µM (MDA-MB-231 cells): < 20%
inhibition at 30 µM (MDA-MB-231 cells): < 20%
inhibition at 10 µM (A2780 cells): < 20%
inhibition at 30 µM (A2780 cells): 41.7 ± 1.99%
inhibition at 10 µM (NIH/3T3 fibroblast cells): < 20%
inhibition at 30 µM (NIH/3T3 fibroblast cells): < 20%
antiproliferative action at higher concentration (in words) [1]: no substantial action
melting point: 97 to 99 °C

SMILES: COC(=O)C1(C)CCCC2(C)C3CCC4(CN)CC3(CCC12)CC4O [Compound 31, (4. R,4aS,6aR,8R,9S,11aR,11bS)-Methyl 9-(aminomethyl)-8-hydroxy-4,11b-dimethyltetradecahydro-6a,9-methanocyclohepta[a]naphthalene-4-carboxylate]
inhibition at 10 µM (HeLa cells): < 20%
inhibition at 30 µM (HeLa cells): 96.02 ± 0.89%
inhibition at 10 µM (SiHa cells): < 20%
inhibition at 30 µM (SiHa cells): 95.68 ± 0.81%
inhibition at 10 µM (MCF-7 cells): 72.7 ± 3.15%
inhibition at 30 µM (MCF-7 cells): 99.42 ± 0.23%
inhibition at 10 µM (MDA-MB-231 cells): 49.5 ± 3.47%
inhibition at 30 µM (MDA-MB-231 cells): 96.82 ± 0.65%
inhibition at 10 µM (A2780 cells): 37.3 ± 1.04%
inhibition at 30 µM (A2780 cells): 97.52 ± 0.8%
inhibition at 10 µM (NIH/3T3 fibroblast cells): < 20%
inhibition at 30 µM (NIH/3T3 fibroblast cells): 97.62 ± 0.71%
melting point: 64 to 68 °C

Further lines, with some results ahead:

melting point: 112 to 114 °C
SMILES: COC(=O)[C@]1(C)CCC[C@@]2(C)[C@@H]3CC[C@@]4(Cn5cc(Cc6ccccc6)nn5)C[C@]3(CC[C@@H]21)C[C@H]4O [Compound 36, (4R,4aS,6aR,8R,9S,11aR,11bS)-Methyl 9-((4-benzyl-1H-1,2,3-triazol-1-yl)methyl)-8-hydroxy-4,11b-dimethyltetradecahydro-6a,9-methanocyclohepta[a]naphthalene-4-carboxylate]
inhibition at 10 µM (HeLa cells): < 20%
inhibition at 30 µM (HeLa cells): 89.32 ± 0.63%
inhibition at 10 µM (SiHa cells): < 20%
inhibition at 30 µM (SiHa cells): 79.4 ± 3.17%
inhibition at 10 µM (MCF-7 cells): 45.9 ± 3.4%
inhibition at 30 µM (MCF-7 cells): 91.8 ± 0.74%
inhibition at 10 µM (MDA-MB-231 cells): < 20%
inhibition at 30 µM (MDA-MB-231 cells): 91.38 ± 0.65%
inhibition at 10 µM (A2780 cells): 29.3 ± 1.68%
inhibition at 30 µM (A2780 cells): 96.31 ± 0.53%
inhibition at 10 µM (NIH/3T3 fibroblast cells): < 20%
inhibition at 30 µM (NIH/3T3 fibroblast cells): 92.91 ± 0.87%

melting point: 137 to 140 °C
SMILES: COC(=O)[C@]1(C)CCC[C@@]2(C)[C@@H]3CC[C@@]4(Cn5cc(-c6ccccc6)nn5)C[C@]3(CC[C@@H]21)CC4=O [Compound 33, (4R,4aS,6aR,9S,11aR,11bS)-Methyl 4,11b-dimethyl-8-oxo-9-((4-phenyl-1H-1,2,3-triazol-1-yl)methyl)tetradecahydro-6a,9-methanocyclohepta[a]naphthalene-4-carboxylate]
inhibition at 10 µM (HeLa cells): < 20%
inhibition at 30 µM (HeLa cells): 23.9 ± 5.01%
inhibition at 10 µM (SiHa cells): < 20%
inhibition at 30 µM (SiHa cells): < 20%
inhibition at 10 µM (MCF-7 cells): 57.1 ± 2.13%
inhibition at 30 µM (MCF-7 cells): 60.3 ± 3.65%
inhibition at 10 µM (MDA-MB-231 cells): < 20%
inhibition at 30 µM (MDA-MB-231 cells): < 20%
inhibition at 10 µM (A2780 cells): 41.1 ± 1.23%
inhibition at 30 µM (A2780 cells): 51.5 ± 1.41%
inhibition at 10 µM (NIH/3T3 fibroblast cells): 54.5 ± 1.93%
inhibition at 30 µM (NIH/3T3 fibroblast cells): 78.9 ± 2.52%
